In brackets after ≈: the same amount, converted by molar mass. Entries after “also recorded” stand apart in the source; their conditions may differ. Like-named read-outs stand apart in the source and are kept apart here.
Columns and labels:
[1] = system: P. berghei ANKA; test: In vivo efficacy, 4-day oral treatment of infected mice; set-up: species or system Plasmodium berghei in female Swiss albino mice; conditions: for ED50: P. berghei ANKA sensitive strain in mice, four days of oral treatment; for Number of mice which survived up to 11 days: 5 mice per group; for Average parasitaemia, Day 7 / Average parasitaemia, Day 9 / Average parasitaemia, Day 11: after stopping the treatment with 10 mg/kg
Experimental: Female Swiss albino mice were collected and kept in the animal house of the Center for Biotechnology and Research Development at the Kenya Medical Research Institute (KEMRI), where the animal experiments were carried out. The animals were six weeks old, weighing 20 to 22 g, and they were kept in mice cages and were allowed to access mice pencils (Ungafeed Company Ltd) and water before experimental testing. Plasmodium berghei ANKA strains, sensitive to quinolone and artemisinin-based drugs, were obtained from the Unit of Malaria, Center for Biotechnology and Research and Development, Kenya Medical Research Institute. Parasites were maintained and cryopreserved in a freezer (−80°C). The parasite was subsequently maintained in the laboratory by serial blood passage from mouse to mouse on a weekly basis.
This consisted of in vivo evaluation of hybrid drug against P. berghei ANKA, a rodent parasite which is commonly used in antimalarial studies. Female Swiss albino donor mouse was injected intraperitoneally with 0.2 ml of inoculums of 1 × 10^7 parasitized erythrocytes, and P. berghei ANKA strain was obtained from the donor mouse. Parasitaemia was assessed after 5 days under microscope using the Giemsa staining technique. The donor mouse was sedated using carbon dioxide to collect blood via cardiac puncture in a heparinized tube using a syringe and a needle. Carcasses were pooled in a biohazard container and stored at room temperature while waiting to be incinerated. Afterward, the experimental mice were infected with inoculums of 1 × 10^7 parasitized erythrocytes using an intraperitoneal method. The mice were grouped into five groups consisting of 5 mice per group. […] Blood for making thin blood smear was collected from the tip of the mouse tail. The efficacy of the drug was measured by comparison of blood parasitaemia after the four days of therapy (i.e., on day 5 postinfection). The ones still alive at the end of the experiments were killed by using carbon dioxide gas followed by incineration.
The determination of the dose to be administered was calculated individually according to each mouse weight. In this regard, these formulas were applied: HED (mg/kg) = Animal Dose (mg/kg) ∗ [Animal km/Human km], where HED stands for human equivalent dose and km which is a conversion factor. With km (a constant) = Weight/Body surface area. For mice of 0.02 kg, with a body surface area of 0.007, km = 0.02/0.007 = 3 [15].(3) Dosage mg/kg =Drug concentration mg/ml∗Volume ml/Body weightkg.
From formula (2),(4) Volume ml of drug to be given to each mouse=Body weight kg∗Dosage mg/kg/Drug concentration mg/ml .
The parasitaemia was checked for every 24 hours from the time of infection for 4 days. Thin blood smears were prepared from each mouse tail venous blood. The smears were prepared by the Giemsa staining technique, and the parasitaemia of individual mouse had been checked using a light microscope. The following formula was used to calculate the percentage parasitaemia:(5) The Percentage of parasitaemia=Number of parasitized RBCs/field/Total number of RBCs/field ∗100.
After 4 days, the percentage (%) chemosuppression of each drug was determined using the following formula [17]:(6) Percentage chemosuppression= 100−A−B/A×100, where A is the mean parasitaemia in the negative control group and B is the parasitaemia in the test group. The dose that cured 50% of infected animals had been determined as effective dose (ED50) using a nonlinear regression logistic dose-response model.

[2] = set-up: method as in PMID 21189459; conditions: 20 mg/kg, oral route, mice; cited from earlier work
[3] = system: vero cells; conditions: cited from earlier work
[4] = MTT cytotoxicity assay; type: cell-based, African green monkey (Cercopithecus aethiops); conditions: African green monkey (Cercopithecus aethiops)
Experimental: (§1) To conduct in vitro toxicity, stock solutions of the test compound and reference drugs were prepared with sterile water. […] The test samples were prepared as a 1 mg·ml^−1 stock solution. Further dilutions were prepared on the day of biological assays. All the drug solutions were stored at 4°C for later use. Vero cells (Vero E-6) were obtained from the Center for Traditional Medicine Drugs and Research (CTMDR), KEMRI. Vero cells are kidney cells extracted from an African green monkey (Cercopithecus aethiops). […] Cells were maintained in Minimum Essential Eagle's Medium (MEM) containing 10% fetal bovine serum (FBS), PenStrep, and glutamine. Vero cells were cultured using T-75 culture flasks. The flasks were kept at 37°C in 5% CO2, and the cells were passaged every 2 to 3 days to keep the cells alive. Trypsinization was carried out to detached cells which overlap each other and counted using a hemocytometer (Neubauer).
(§2) Using a 96-microwell plate, a cell density of 20,000 vero cells were seeded and incubated for 24 hours at 37°C under 5% CO2 to allow cells to attach to the surface/base of the plate. […] The plates were incubated for 48 hours at 37°C under 5% CO2 to allow the reaction to occur. After 48 hours, 0.5 mg/ml of 3-(4, 5-dimethylthiazol-2-yl)-2,5-diphenyltetra-zolium bromide (MTT) was added for calorimetric measurement of the ability of a drug to kill the vero cell lines. The plates were incubated at 37°C for 3 hours. 100 μL of 100% DMSO was added to each well and mixed to ensure cell lysis and dissolving of the formazan crystals. Doxorubicin was used as a control drug.
(§3) The amount of formazan measured was directly proportional to the number of viable cells.

[5] = set-up: method as in PMID 23433124; conditions: cited from earlier work
[6] = system: P. falciparum 3D7 strains (CQ sensitive); test: In vitro drug sensitivity, tritiated hypoxanthine incorporation assay; type: cell-based, Plasmodium falciparum; conditions: P. falciparum 3D7, CQ sensitive, [3H]hypoxanthine uptake, 48 hours
Experimental: Further dilutions were prepared on the day of biological assays. All the drug solutions were stored at 4°C for later use.

[7] = system: acute falciparum malaria; conditions: patients, 0 to 250 mg artesunate together with a curative dose of mefloquine; cited from earlier work
[8] = Solubility observations; type: physicochemical
[9] = system: vero cells (Vero E-6); test: MTT cytotoxicity assay; type: cell-based, African green monkey (Cercopithecus aethiops); conditions: vero cells
Experimental: as §1, §2, §3

[10] = Acute oral toxicity in mice; conditions: mouse, in vivo, 28 days
[11] = Acute oral toxicity in mice; type: in vivo; conditions: for Number of dead mice: 3 mice per group, head says after 28 days, text 14 days, listed as sarcosine-aniline hybrid drug; for Mean average of weight after 14 days: initial weights 20 to 22 g
Experimental: In this step, acute toxicity was performed. Three dosages, such as 2000 mg·kg^−1, and 300 mg·kg^−1, and 50 mg/kg were administered orally to mice in three groups, and the fourth group which served as a control received water as a placebo. Each group consisted of 3 mice, and the weight and number of dead mice were monitored and recorded after each 4 days over an interval of 14 days. Clinical or physical signs were also subjected to be recorded during the study period. At the end of the experiment, the mice were killed by using concentrated carbon dioxide gas followed by incineration. The number of dead mice was to be recorded, and a semilog plot of log concentration against percentage (%) response was made.

[12] = 10 mg/kg oral, after 4 days of treatment
[13] = Plasmodium berghei, 96 h, read-out: ED50
[14] = Plasmodium falciparum, read-out: IC50

Compound	ED50 [1]	Number of mice which survived up to 11 days ([1]; dosage 0.625 mg/kg oral)	Number of mice which survived up to 11 days ([1]; dosage 1.25 mg/kg oral)	Number of mice which survived up to 11 days ([1]; dosage 2.5 mg/kg oral)	Number of mice which survived up to 11 days ([1]; dosage 5 mg/kg oral)	Number of mice which survived up to 11 days ([1]; dosage 10 mg/kg oral)	Percentage of chemosupression of parasitaemia [1, 12] [%]	Average parasitaemia, Day 7 [1] [%]	Average parasitaemia, Day 9 [1] [%]	Average parasitaemia, Day 11 [1] [%]	also measured
C[C@H]1[C@H](OC(=O)CCC(=O)Nc2ccc(Oc3ccc(Cl)cc3)c(Cl)c2)O[C@@H]2O[C@@]3(C)CC[C@H]4[C@H](C)CC[C@@H]1[C@@]24OO3 [Artesunate-aniline hybrid]	3.56 mg/kg	1	3	3	2	3					
CCN(CC)CCCC(C)Nc1ccnc2cc(Cl)ccc12 (stereo not shown) [Chloroquine]		3	3	4	4	5	100	0.00	0.03	0.42	Chemosupression [2]: 100%; Number of mice which survived up to 11 days ([1]; dosage 10 mg/kg oral, listed as chloroquine): all mice; Concentrations not revealing cytotoxicity effects [3]: ≤ 50 µg/mL; Concentrations showing major cytotoxicity [3]: ≥ 500 µg/mL
C[C@H]1[C@H](OC(=O)CCC(=O)O)O[C@@H]2O[C@@]3(C)CC[C@H]4[C@H](C)CC[C@@H]1[C@@]24OO3 [Artesunate]		2	3	4	3	5	100	0.00	0.2	0.67	CC50 at 48 h [4]: 19.7 µg/mL (≈ 51.2 µM); ED50 ([5]; intraperitoneal route): < 1 mg/kg; ED50 ([5]; oral route, artesunate with 80 mg/kg as highest dosage): 1.8 mg/kg; Parasites observed under the microscope [1, 12]: No parasites were observed; ED50 [1, 13]: 2.94 mg/kg; Number of mice which survived up to 11 days ([1]; dosage 10 mg/kg oral, listed as artesunate): all mice; IC50 [6, 14]: 0.00263 ± 0.00038 µg/mL (≈ 0.00684 µM); ED50 [7]: 1.6 mg/kg
COc1cccc2c1C(=O)c1c(O)c3c(c(O)c1C2=O)C[C@@](O)(C(=O)CO)C[C@@H]3O[C@H]1C[C@H](N)[C@H](O)[C@H](C)O1 [Doxorubicin]											CC50 at 48 h [4]: 1.96 µg/mL (≈ 3.61 µM)
CNCC(=O)O [Sarcosine, N-methyl glycine]	did not show in vivo activity; also recorded: No activity	0	1	1	2	1					Solubility in water [8]: completely soluble; ED50 ([1]; listed as sarcosine): not detectable; IC50 [6]: did not show in vitro activity; also recorded: No activity
3-chloro-4-(4-chlorophenoxy) aniline	3.61 mg/kg	1	3	3	2	4	68	6.97	9.03	11.84	IC50 [6]: 0.02286 ± 0.00126 µg/mL
CNCC(=O)Nc1ccc(Oc2ccc(Cl)cc2)c(Cl)c1 [Sarcosine-aniline hybrid, 3-Chloro-4(4-chlorophenoxy) Methyglycylanilde]		1	1	1	2	3		9.74	12.98	15.61	Mean difference of CC50 versus artesunate ([9]; sarcosine-aniline hybrid VS artesunate, in µg/mL): 30.48; Mean difference of CC50 versus chloroquine ([9]; sarcosine-aniline hybrid VS chloroquine): -7.78; Mean difference of CC50 versus doxorubicin ([9]; sarcosine-aniline hybrid VS doxorubicin, in µg/mL): 48.21; CC50 at 48 h ([4]; Vero E-6 cells, vero cells, MTT, 48 hours, triplicate, read-out: Mean CC50): 50.2 µg/mL (≈ 154 µM); Solubility in dimethyl sulfoxide (DMSO) ([8]; DMSO): soluble; Solubility in Tween 80 ([8]; Tween 80): slightly soluble; Solubility in water [8]: very low; ED50 [1, 13]: 6.49 mg/kg; Number of dead mice [10]: 0; Number of dead mice ([11]; 50 mg/kg oral): No mouse died; Mean average of weight after 14 days ([11]; 50 mg/kg oral): 22.24 g; Number of dead mice ([11]; 300 mg/kg oral): No mouse died; Mean average of weight after 14 days ([11]; 300 mg/kg oral): 21.58 g; Number of dead mice ([11]; 2000 mg/kg oral): No mouse died; Mean average of weight after 14 days ([11]; 2000 mg/kg oral): 21.34 g; Therapeutic index (LD50/ED50) ([11]; LD50 >5000 mg/kg, ED50 6.49 mg/kg): greater than 770.41; LD50 at 14 days ([11]; mouse, in vivo, oral, mice, estimated from no deaths at 2000 mg/kg): > 5000 mg/kg; OECD/OCDE guideline toxicity category ([11]; oral acute toxicity, mice): category 5; Therapeutic index relative to that of artesunate ([11]; versus artesunate therapeutic index of 4 from Xie et al. [31]): 192.6 fold; IC50 [6, 14]: 0.0448 ± 0.0047 µg/mL (≈ 0.138 µM)

From PMC7171691 (Journal of Tropical Medicine, 2020)
